# Entries after “also recorded” stand apart in the source; their conditions may differ. Read-outs that look alike come from different tables or passages of the source.
# What was measured:
# [1] = for stability of the compound in phosphate buffer (HPLC): 25 μM of each compound, 0.1 M phosphate buffer pH 7.4
# MC38 colon cancer cells [2] = assay: MC38 colon cancer cell proliferation (MTT assay); assay type: cell-based; settings: for effect of antioxidant on anti-proliferative effect of curcumin: MC38, curcumin 20 μM with antioxidant (3.9 μM each, FIG. 4D); for effect of antioxidant on anti-proliferative effect of curcumin / effect of antioxidant alone on MC38 cell proliferation: 24 h; for effect of antioxidant alone on MC38 cell proliferation: 3.9-62.5 μM antioxidant alone; for inhibition at 10 µg/mL: Mus musculus
# Method: MC38 colon cancer cells (a gift from Prof. Ajit Varki at the University of California, San Diego) were plated into 96-well plates (6,000 cells per well) in 100 μL Dulbecco's Modified Eagle Medium (DMEM, purchased from Lonza, Allendale, N.J.) fortified with 10% Fetal Bovine Serum ([…], purchased from Coming Inc., Corning, N.Y.) and allowed to attach overnight. […] Nitteranon, V.; Chan, L. Y.; Parkin, K. L. Glutathione conjugation attenuates biological activities of 6-dehydroshogaol from ginger. Food Chem. 140:1-8; 2013, which is incorporated by reference herein in its entirety and for all purposes.
# [3] = Curcumin stability in serum-free basal DMEM medium (HPLC); assay type: physicochemical
# Source text: (A1-A6) Representative microscope images of the treated cells. […] The results are mean ±SD, The samples designated with different letters are statistically different (P <0.05).
# [4] = Plasma concentration of curcumin in mice after i.p. injection (HPLC); assay type: in vivo; settings: male, Swiss Webster, mouse, intraperitoneal, 20 mg/kg
# Method: After 1 h, the mice were sacrificed to harvest the blood. The harvested blood was centrifuged at 1,200 g for 10 min at 4° C. to prepare the plasma fraction; then 200 μL plasma was immediately extracted with 400 μL ethyl acetate, the ethyl acetate extract was dried and reconstituted in methanol for HPLC analysis.
# The mobile phase consisted methanol with 0.1% acetic acid (mobile phase B) and water with 0.1% acetic acid (mobile phase A).
# MC38 colon cancer cells [5] = assay: Cell cycle progression and apoptosis in MC38 colon cancer cells; assay type: cell-based; settings: MC38, 24 hour treatment
# [6] = test system: LPS-induced NO production; assay: LPS-induced NO production in RAW 264.7 macrophage cells; assay type: cell-based
# iNOS = assay: LPS-induced expression of iNOS in RAW 264.7 macrophage cells; assay type: cell-based
# NF-kB signaling = assay: LPS-induced NF-kB signaling in RAW 264.7 macrophage cells; assay type: cell-based
# COX-2 = settings: RAW 264.7 macrophage cells
# [7] = aqueous buffer, background statement; cited from earlier work
# colorectal cancer = settings: human, cited from earlier work
# [8] = test system: advanced pancreatic cancer; settings: human, daily intake of 8 grams; cited from earlier work
# physchem = settings: 0.1 M phosphate buffer, pH 7.4
# [9] = test system: Cadmium-induced hepatotoxicity; settings: rats; 200-400 mg/kg curcumin alone, 400 mg/kg ascorbate alone, or their combination; cited from earlier work
# [10] = 25 μM curcumin, 0.1 M phosphate buffer, with or without 150 μM antioxidant, HPLC, % of time 0
compound,measurement,setting,value
"O=C([O-])CN(CCN(CC(=O)O)CC(=O)O)CC(=O)[O-].[Na+].[Na+] [EDTA, disodiumethylenediaminetetra acetic acid]",protective effect of EDTA on curcumin stability (HPLC),"[1]; EDTA even at a dose as high as 200 μM, phosphate buffer",little protective effect
"CC(C)(C)c1cc(O)ccc1O [TBHQ, tert-butylhydroquinone]",effect of antioxidant on anti-proliferative effect of curcumin,MC38 colon cancer cells [2],significantly increased anti-proliferative effects of curcumin
Cc1c(C)c2c(c(C)c1O)CCC(C)(C(=O)O)O2 (stereo not drawn) [Trolox],effect of antioxidant alone on MC38 cell proliferation,MC38 colon cancer cells [2],no effect
same,effect of antioxidant on anti-proliferative effect of curcumin,MC38 colon cancer cells [2],significantly increased anti-proliferative effects of curcumin
O=C1O[C@H]([C@@H](O)CO)C(O)=C1O [ascorbate],effect of antioxidant alone on MC38 cell proliferation,MC38 colon cancer cells [2],no effect
O=C(O)/C=C/c1ccc(O)c(O)c1 [caffeic acid],effect of antioxidant on anti-proliferative effect of curcumin,MC38 colon cancer cells [2],significantly increased anti-proliferative effects of curcumin
COc1cc(/C=C/C(=O)CC(=O)/C=C/c2ccc(O)c(OC)c2)ccc1O [curcumin],stability of curcumin in basal medium,[3],rapidly degraded
same,inhibition at 10 µg/mL,"MC38 colon cancer cells [2]; MC-38, 24 h, read-out: inhibition of MC38 proliferation after 24 h treatment",~60%
same,inhibition at 10 µg/mL,"MC38 colon cancer cells [2]; MC-38, read-out: inhibition of MC38 proliferation after 48-72 h treatment",> 95%
same,concentration at 1 h,[4],0.0148 ± 0.016 µM
same,G2 cell cycle arrest and apoptosis,MC38 colon cancer cells [5],significantly induced G2 cell cycle arrest and apoptosis
same,inhibition of LPS-induced NO production,[6],inhibited LPS-induced NO production in a dose-dependent manner
same,inhibition of LPS-induced expression of iNOS,iNOS,dose-dependently inhibited
same,"inhibition of LPS-induced NF-kB signaling (IKK phosphorylation, IκBα degradation, nuclear translocation of p65)",NF-kB signaling,inhibited LPS-induced activation of NF-kB signaling
same,degradation of curcumin in the buffer (HPLC),"[1]; 25 μM curcumin, 0.1 M phosphate buffer pH 7.4, after ~12-min incubation",80-90%
same,curcumin remaining in the phosphate buffer after 24-h incubation,[1]; [10],~5.9%
same,curcumin remaining in the phosphate buffer after 48-h incubation,[1]; [10],~4.2%
same,stability of the compound in phosphate buffer (HPLC),[1],rapidly degraded
same,inhibition of LPS-induced expression of inflammatory protein COX-2,COX-2,inhibited
same,half-life of curcumin at physiological pH,[7],several minutes
same,effect in Phase IIa trial of colorectal cancer at 2 grams/day,colorectal cancer; 2 grams/day,no effect
same,effect in Phase IIa trial of colorectal cancer at 4 grams/day,colorectal cancer; 4 grams/day,only inhibited aberrant crypt foci; also recorded: only reduced colorectal cancer risks
same,reduction of aberrant crypt foci,colorectal cancer; daily intake of 4 grams of curcumin for a month,~40%
same,anti-cancer efficacy in advanced pancreatic cancer,[8],demonstrates anti-cancer efficacy in some patients
same,half-life at 25 μM,physchem,< 10 min
same,effect on Cadmium-induced hepatotoxicity,[9],no effect
"COc1ccc(C=CC(=O)CC(=O)C=Cc2ccc(OC)c(OC)c2)cc1OC [dimethoxy curcumin, 1,7-bis(3,4-dimethoxyphenyl)-1,6-heptadiene-3,5-dione]",stability of the compound in phosphate buffer (HPLC),[1],very stable
O=C(O)c1cc(O)c(O)c(O)c1 [gallic acid],effect of antioxidant on anti-proliferative effect of curcumin,MC38 colon cancer cells [2],significantly increased anti-proliferative effects of curcumin
same,"effect of co-added antioxidant on curcumin stability (colorimetric assay, absorbance 420 nm)","[1]; 25 μM curcumin, phosphate buffer, dose of antioxidants 15 and 1.50 μM as printed",dramatically increased curcumin stability
same,effect of co-added antioxidant on long-term stability of curcumin,"[1]; 24-h and 48-h incubation, antioxidant 150 μM, 25 μM curcumin, phosphate buffer, HPLC",significantly increased long-term stability of curcumin
O=C(/C=C/c1ccc(O)c(O)c1)O[C@H](Cc1ccc(O)c(O)c1)C(=O)O [rosmarinic acid],effect of antioxidant on anti-proliferative effect of curcumin,MC38 colon cancer cells [2],significantly increased anti-proliferative effects of curcumin
bicyclopentadione [BCP],inhibition of cancer cell proliferation in the tested dose range,"MC38 colon cancer cells [2]; MC38, 10-40 μg/mL, 24-72 h treatment",completely inactive
same,G2 cell cycle arrest and apoptosis,MC38 colon cancer cells [5],neither TDP nor BCP had such effects
same,inhibition of LPS-induced NO production,[6],no effect
same,inhibition of LPS-induced expression of iNOS,iNOS,no effect
same,"inhibition of LPS-induced NF-kB signaling (IKK phosphorylation, IκBα degradation, nuclear translocation of p65)",NF-kB signaling,neither TDP nor BCP had such inhibitory effect
